Results: ChEMBL document CHEMBL1151677, “Bicinchoninic acid protein assay in the determination of adriamycin cytotoxicity modulated by the MDR glycoprotein” (1996)
≈ marks a conversion by molar mass, not a printed value. Blank lines part the entries; values can stand above or below the compound they belong to. Calls of active or inactive are those of the source. The rule behind the calls is not given here.

Experiments:
MCF/ADR [1] = experiment: Reversal of P-gp-mediated multidrug resistance in human MCF/ADR cells assessed as ratio of adriamycin ED50 without drug to adriamycin ED50 with drug at 0.53 uM after 6 days by BCA assay; type: cell-based
MCF/ADR [2] = experiment: Reversal of P-gp-mediated multidrug resistance in human MCF/ADR cells assessed as ratio of adriamycin ED50 without drug to adriamycin ED50 with drug at 1.07 uM after 6 days by BCA assay; type: cell-based
[3] = Cytotoxicity against human MCF7/ADR cells assessed as ratio of drug concentration to 2 x drug ED50 at 0.28 uM after 6 days by BCA assay; type: functional, NCI/ADR-RES
[4] = Cytotoxicity against human MCF7/ADR cells assessed as ratio of drug concentration to 2 x drug ED50 at 1.07 uM after 6 days by BCA assay; type: functional, NCI/ADR-RES
[5] = Cytotoxicity against human MCF7/ADR cells assessed as ratio of drug concentration to 2 x drug ED50 at 0.53 uM after 6 days by BCA assay; type: functional, NCI/ADR-RES
MCF/ADR [6] = experiment: Reversal of P-gp-mediated multidrug resistance in human MCF/ADR cells assessed as ratio of adriamycin ED50 without drug to adriamycin ED50 with drug at 0.28 uM after 6 days by BCA assay; type: cell-based
MCF/ADR [7] = experiment: Reversal of P-gp-mediated multidrug resistance in human MCF/ADR cells assessed as enhancement in cytotoxicity of adriamycin; type: cell-based
MCF = experiment: Reversal of P-gp-mediated multidrug resistance in human MCF cells assessed as enhancement in cytotoxicity of adriamycin; type: cell-based
MCF7 [8] = experiment: Cytotoxicity against human MCF7 cells after 6 days by BCA assay; type: functional; conditions: MCF7, 144 h, read-out: ED50 (the source's name)
[9] = Cytotoxicity against human MCF7/ADR cells after 6 days by BCA assay; type: functional; conditions: NCI/ADR-RES, 144 h, read-out: ED50 (the source's name)
MCF7 [10] = experiment: Cytotoxicity against human MCF7 cells after 6 days by coulter counted assay; type: functional; conditions: MCF7, 144 h, read-out: ED50 (the source's name)
[11] = Cytotoxicity against human MCF7/ADR cells after 6 days by coulter counted assay; type: functional; conditions: NCI/ADR-RES, 144 h, read-out: ED50 (the source's name)
[12] = Cytotoxicity against human MCF7/ADR cells assessed as ratio of drug concentration to 2 x drug ED50 at 0.82 uM after 6 days by BCA assay; type: functional, NCI/ADR-RES
[13] = Cytotoxicity against human MCF7/ADR cells assessed as ratio of drug concentration to 2 x drug ED50 at 3.29 uM after 6 days by BCA assay; type: functional, NCI/ADR-RES
[14] = Cytotoxicity against human MCF7/ADR cells assessed as ratio of drug concentration to 2 x drug ED50 at 1.64 uM after 6 days by BCA assay; type: functional, NCI/ADR-RES
[15] = Cytotoxicity against human MCF7/ADR cells assessed as ratio of drug concentration to 2 x drug ED50 at 0.30 uM after 6 days by BCA assay; type: functional, NCI/ADR-RES
[16] = Cytotoxicity against human MCF7/ADR cells assessed as ratio of drug concentration to 2 x drug ED50 at 1.23 uM after 6 days by BCA assay; type: functional, NCI/ADR-RES
[17] = Cytotoxicity against human MCF7/ADR cells assessed as ratio of drug concentration to 2 x drug ED50 at 2.46 uM after 6 days by BCA assay; type: functional, NCI/ADR-RES
[18] = Displacement of N-(p-azido-[3-125I]salicyl)-N'-beta-aminoethylvindesine from P-glycoprotein at 12.4 uM
[19] = Cytotoxicity against human MCF7/ADR cells assessed as ratio of drug concentration to 2 x drug ED50 at 0.15 uM after 6 days by BCA assay; type: functional, NCI/ADR-RES
[20] = Cytotoxicity against human MCF7/ADR cells assessed as ratio of drug concentration to 2 x drug ED50 at 0.62 uM after 6 days by BCA assay; type: functional, NCI/ADR-RES

SMILES: CC[C@H]1CN2CC[C@H]1C[C@H]2[C@@H](Oc1cc(C)c2ccccc2n1)c1ccnc2ccc(OC)cc12
- Ratio ED50 (MCF/ADR [1]): 6
- Ratio ED50 (MCF/ADR [2]): 18
- Ratio [3]: 0.03
- Ratio [4]: 0.11
- Ratio [5]: 0.06
- Ratio ED50 (MCF/ADR [6]): 3

SMILES: C=C[C@H]1C[N+]2(Cc3ccccc3)CC[C@H]1C[C@H]2[C@H](O)c1ccnc2ccc(OC)cc12
- Activity (MCF/ADR [7]): inactive
- Activity (MCF): inactive

SMILES: COc1ccc(CCN(C)CCCC(C#N)(c2ccc(OC)c(OC)c2)C(C)C)cc1OC (stereo not drawn)
- Activity (MCF): inactive

SMILES: COc1cccc2c1C(=O)c1c(O)c3c(c(O)c1C2=O)C[C@@](O)(C(=O)CO)C[C@@H]3O[C@H]1C[C@H](N)[C@H](O)[C@H](C)O1 [DOXORUBICIN]
- EC50 (MCF7 [8]): 0.0018 µg/mL (≈ 0.00331 µM)
- EC50 [9]: 0.47 µg/mL (≈ 0.865 µM)
- EC50 (MCF7 [10]): 0.0021 µg/mL (≈ 0.00386 µM)
- EC50 [11]: 2.7 µg/mL (≈ 4.97 µM)
- Activity (MCF): Active

SMILES: COC(=O)[C@H]1[C@H]2C[C@H]3c4[nH]c5cc(OC)ccc5c4CCN3C[C@H]2C[C@@H](OC(=O)c2cc(OC)c(OC)c(OC)c2)[C@@H]1OC [ISORESERPINE]
- Ratio [12]: 0.04
- Ratio [13]: 0.17
- Ratio [14]: 0.09

- Activity [18]: 79.2%
SMILES: COC(=O)[C@H]1[C@H]2C[C@@H]3c4[nH]c5cc(OC)ccc5c4CCN3C[C@H]2C[C@@H](OC(=O)c2cc(OC)c(OC)c(OC)c2)[C@@H]1OC [RESERPINE]
- Ratio [15]: 0.009
- Ratio [16]: 0.04
- Ratio [17]: 0.08
- Ratio [19]: 0.05
- Ratio [20]: 0.02
